In data set [1] the test system is prostate and breast bone metastases. The following applies: cited from earlier work; for long-lived impurities (Eu isotopes) in patients on multiple doses: high-resolution gamma spectroscopy whole body counters.
Data set [2] can be described thus: Residual activity in bone cancer patients after repeated doses, NaI crystal detection. It counts as in vivo. The note with it: 30 mCi doses, after receiving 7 doses (of 10); activity due to long-lived radionuclidic impurities. The source says:
The Sm-153 prepared as in Example A was used to prepare doses of Sm-153-EDTMP. These doses were used to treat patients suffering from bone cancer. Patients were repeatedly treated (10 times) with 30 mCi of Sm-153-EDTMP as prepared in this example. The first 5 doses were given at 3 month intervals, and the second five doses given at 6 month intervals. After the decay of Sm-153, a NaI crystal was used to detect the amount of residual activity in the patients. […] The activity was due to long-lived radionuclidic impurities created during the target irradiation process.

The subject of data set [3] is tumor. Kind of data set: Ascending dose trial in dogs (MTD). Format: in vivo. The note with it: for maximum tolerated dose: dogs. From the text:
The maximum tolerated dose is 1.75-2.0 mCi/kg; whereas for Sm-153-EDTMP the maximum tolerated dose was 1.0 mCi/kg. Stable or improved indices were experienced by 7 of 12 dogs.

Data set [4] has as its system osteosarcoma. Kind of data set: Treatment of dogs with osteosarcoma with LSA Sm-153-DOTMP. It counts as in vivo. As for the experimental part:
Seven dogs with osteosarcoma were treated with the Sm-153-DOTMP made from LSA Sm-153 of Example 1 at 1 mCi/kg.

Where [5] appears, read: about 550 patients, repeated 30 mCi doses.

We go through 2 substances from patent US11813339B2, “Method of use for therapeutic bone agents” (IGL Pharma, Inc., priority 2017, dated 2023).

Like-named read-outs stand apart in the source and are kept apart here.

As for “Sm-153-ethylenediaminetetramethylenephosphonic acid [Sm-153-EDTMP]”, the lesion response entry in data set [1] (setting [5]) is on record as “lesion regression”. Further, the survival result in data set [1] (setting [5]) is listed as “improved survival”. Also, the figures for the “long-lived impurities (Eu isotopes) in patients on multiple doses” value in data set [1] and in data set [1] (listed as HSA Sm-153-EDTMP) were “increases with every treatment” and “apparent”, respectively. Also, the “residual activity detected in patients after decay of Sm-153” value in data set [2] was “significant amounts of activity detected in patients, which increased with each dose given thereafter”. In addition, the maximum tolerated dose in data set [3] amounted to 1.0 mCi/kg.

Regarding “Sm-153 1,4,7,10-tetraazacyclododecanetetramethylenephosphonic acid [LSA Sm-153-DOTMP]”, in data set [3] (ascending dose trial), the “stable or improved indices” value is reported as 7 of 12. In addition, in data set [3] (ascending dose trial of 13 dogs starting at 1.5 mCi/kg), the uptake in tumor entry is recorded as “uptake in tumor for all seven dogs tested”. Also, the maximum tolerated dose in data set [3] is listed as 1.75-2.0 mCi/kg. For the same substance, the “myelosuppression relative to similar dogs treated with 1 mCi/kg of HSA Sm-153-EDTMP” value in data set [4] (evidenced from the nadir in platelets and neutrophils) was “about one half”. For the same substance, the “uptake in the tumor” value in data set [4] (seven dogs with osteosarcoma, 1 mCi/kg) was “uptake in the tumor for all dogs”.
